Data: PubChem BioAssay AID2060615 (Molecular Pharmacology Branch, DTP, NCI, 2025)

System: 496974-208-R-J2-PDC complex spheroids, growth % test/control
Experiment: Anticancer human tumor 496974-208-R-J2-PDC patient-derived pancreatic carcinoma cell line growth inhibition [CLK]
Settings: for IC50: curve of first compound; for viability, T/C: stronger effect = lower value
Method in brief: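 Multi-cell-type spheroids combined patient-derived tumor cells with HUVEC endothelial cells and human mesenchymal stem cells. Paired agents were dosed in half-log steps down from about clinical Cmax, or from 10 microM where Cmax was unknown.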
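Also: spheroids exposed to the drugs for 7 days before readout.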
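For viability, T/C in this document: 100% = DMSO vehicle control wells.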

Compound: COc1ccc([C@@H](O)c2cc(-c3ncnc4cc(N5CCOCC5)ccc34)c(F)cc2Cl)nn1 + CNC(=O)c1ccc(Nc2nc(OC3CCCC3)c3c(-c4ccc5nc(C)oc5c4)c[nH]c3n2)c(OC)c1
- IC50 (second compound 0.0316 µM): 7280 nM
- IC50 (second compound 0.1 µM): 6160 nM
- IC50 (second compound 0.316 µM): 2600 nM
- IC50 (second compound 1 µM): 1710 nM
- IC50 (second compound 3.16 µM): 1360 nM
- IC50 (second compound 10 µM): 306 nM
- viability, T/C (second compound 0.0316 µM, first compound 0.0316 µM): 102%
- viability, T/C (second compound 0.0316 µM, first compound 0.1 µM): 88.6%
- viability, T/C (second compound 0.0316 µM, first compound 0.316 µM): 89.4%
- viability, T/C (second compound 0.0316 µM, first compound 1 µM): 88.7%
- viability, T/C (second compound 0.0316 µM, first compound 3.16 µM): 76.1%
- viability, T/C (second compound 0.0316 µM, first compound 10 µM): 40.1%
- viability, T/C (second compound 0.1 µM, first compound 0.0316 µM): 78.5%
- viability, T/C (second compound 0.1 µM, first compound 0.1 µM): 75.8%
- viability, T/C (second compound 0.1 µM, first compound 0.316 µM): 83.9%
- viability, T/C (second compound 0.1 µM, first compound 1 µM): 75.9%
- viability, T/C (second compound 0.1 µM, first compound 3.16 µM): 62.3%
- viability, T/C (second compound 0.1 µM, first compound 10 µM): 41.1%
- viability, T/C (second compound 0.316 µM, first compound 0.0316 µM): 71%
- viability, T/C (second compound 0.316 µM, first compound 0.1 µM): 85.1%
- viability, T/C (second compound 0.316 µM, first compound 0.316 µM): 68.9%
- viability, T/C (second compound 0.316 µM, first compound 1 µM): 67.1%
- viability, T/C (second compound 0.316 µM, first compound 3.16 µM): 46.5%
- viability, T/C (second compound 0.316 µM, first compound 10 µM): 20.4%
- viability, T/C (second compound 1 µM, first compound 0.0316 µM): 72%
- viability, T/C (second compound 1 µM, first compound 0.1 µM): 64.2%
- viability, T/C (second compound 1 µM, first compound 0.316 µM): 65.1%
- viability, T/C (second compound 1 µM, first compound 1 µM): 58.1%
- viability, T/C (second compound 1 µM, first compound 3.16 µM): 41.6%
- viability, T/C (second compound 1 µM, first compound 10 µM): 23.2%
- viability, T/C (second compound 3.16 µM, first compound 0.0316 µM): 62.9%
- viability, T/C (second compound 3.16 µM, first compound 0.1 µM): 68%
- viability, T/C (second compound 3.16 µM, first compound 0.316 µM): 59.5%
- viability, T/C (second compound 3.16 µM, first compound 1 µM): 56.3%
- viability, T/C (second compound 3.16 µM, first compound 3.16 µM): 35.6%
- viability, T/C (second compound 3.16 µM, first compound 10 µM): 17.9%
- viability, T/C (second compound 10 µM, first compound 0.0316 µM): 59.7%
- viability, T/C (second compound 10 µM, first compound 0.1 µM): 55.8%
- viability, T/C (second compound 10 µM, first compound 0.316 µM): 50.2%
- viability, T/C (second compound 10 µM, first compound 1 µM): 42.9%
- viability, T/C (second compound 10 µM, first compound 3.16 µM): 27.3%
- viability, T/C (second compound 10 µM, first compound 10 µM): 14.2%
